Reference: patent EP0241134B1, “Pharmaceutical mixture comprising nedocromil or a salt thereof in combination with a bronchodilator” (FISONS plc, priority 1986, dated 1987)

Test system: acetyl choline or histamine induced bronchospasm
Test: Duration of action: inhibition of acetyl choline or histamine induced bronchospasm by equiactive i.v. doses
Assay type: in vivo
Conditions: anaesthetised guinea-pigs
Source text: We prefer the B₂ selective bronchodilator to be long acting. By the term 'long acting' we mean that the compound has a longer duration of action as a relaxant of bronchial smooth muscle in pharmacological tests than does isoprenaline or orciprenaline. For duration of action studies, a comparison is made of the effect of equiactive i.v. doses as inhibitors of acetyl choline or histamine induced bronchospasm in anaesthetised guinea-pigs. The duration of action of isoprenaline in such a test is relatively short (control response back to normal in 10 to 25 minutes). In the case of a compound with a longer duration of action, the control response would only return to normal over a several-fold longer period of time.

CC(C)NCC(O)c1ccc(O)c(O)c1 (stereo not shown) [isoprenaline]
duration of action (control response back to normal): 10 to 25 min
